Measurements published in ChEMBL document CHEMBL1201862, “PubChem BioAssay data set” (2004).
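Compound exposure: 48 hours, 5 concentrations, 96-well plates. GI50 marks 50% less growth.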 Calls of active or inactive are those of the source. No stated cut-off is given here; in the data, active = GI50 up to about 1.1 µM and inactive = higher.

Experiments:
Assay in all cases: DTP human tumour cell line panel, 48 h
[1] = test system: ACHN
[2] = test system: BT-549
[3] = test system: COLO 205
[4] = test system: DU-145
[5] = test system: Hs-578T
[6] = test system: M14
[7] = test system: MCF7
[8] = test system: MDA-MB-231
[9] = test system: Malme-3M
[10] = test system: NCI-H23
[11] = test system: NCI-H460
[12] = test system: NCI/ADR-RES
[13] = test system: OVCAR-3
[14] = test system: OVCAR-8
[15] = test system: PC-3
[16] = test system: SN12C
[17] = test system: TK-10
[18] = test system: UACC-257
[19] = test system: UACC-62

SMILES | GI50 [1] | GI50 [2] | GI50 [3] | GI50 [4] | GI50 [5] | GI50 [6] | GI50 [7] | GI50 [8] | GI50 [9] | GI50 [10] | GI50 [11] | GI50 [12] | GI50 [13] | GI50 [14] | GI50 [15] | GI50 [16] | GI50 [17] | GI50 [18] | GI50 [19]
O=C(O)CCCSc1ccccc1 | > 100 µM (inactive) | > 100 µM (inactive) | > 100 µM (inactive) | > 100 µM (inactive) | > 100 µM (inactive) | > 100 µM (inactive) | > 100 µM (inactive) | > 100 µM (inactive) | > 100 µM (inactive) | > 100 µM (inactive) | > 100 µM (inactive) | > 100 µM (inactive) | > 100 µM (inactive) | > 100 µM (inactive) | > 100 µM (inactive) | > 100 µM (inactive) | > 100 µM (inactive) | > 100 µM (inactive) | > 100 µM (inactive)
CC(C)CCC1(O)O[C@H]2C[C@H]3[C@@H]4CCC5CC(=O)C=C[C@]5(C)[C@H]4CC[C@]3(C)[C@H]2[C@@H]1C (some centres undefined) | 13.7 µM (inactive) | 14.3 µM (inactive) | 14.4 µM (inactive) | 14.7 µM (inactive) | 2.82 µM (inactive) | 15.9 µM (inactive) | 7.73 µM (inactive) | 14.5 µM (inactive) | 14.9 µM (inactive) | 4.26 µM (inactive) | 10.3 µM (inactive) | 15.6 µM (inactive) | 10.8 µM (inactive) | 14.2 µM (inactive) | 5.02 µM (inactive) | 14.4 µM (inactive) | 11.8 µM (inactive) | 15 µM (inactive) | 14.6 µM (inactive)
COc1ccccc1C(=O)c1ccc2ccccc2c1 | 41.2 µM (inactive) | 16.1 µM (inactive) | 20.4 µM (inactive) | 20.6 µM (inactive) | 12.3 µM (inactive) | 11.9 µM (inactive) | 8.15 µM (inactive) | 35.8 µM (inactive) | 10.8 µM (inactive) | 40 µM (inactive) | 15.2 µM (inactive) | 41.3 µM (inactive) | 9.4 µM (inactive) | 26.4 µM (inactive) | 23.8 µM (inactive) | 28.1 µM (inactive) | 17.8 µM (inactive) | 30.6 µM (inactive) | 7.48 µM (inactive)
C/C=C(\C)c1cc(=O)c2c(C)cc3c(c2o1)C(=O)c1c(O)c(C2CC(C)(N(C)C)C(OC(C)=O)C(C)O2)cc(C2CC(N(C)C)C(O)C(C)O2)c1C3=O (centres undefined) | 0.155 µM (active) | 1.07 µM (active) | 0.621 µM (active) | 0.258 µM (active) | 2 µM (inactive) | 0.748 µM (active) | 0.157 µM (active) | 1.14 µM (inactive) | 0.352 µM (active) | 0.971 µM (active) | 0.00982 µM (active) | 1.41 µM (inactive) | 2.13 µM (inactive) | 0.542 µM (active) | 1.35 µM (inactive) | 0.817 µM (active) | 1.06 µM (active) | 1.49 µM (inactive) | 1.12 µM (inactive)
CCOC(=O)C(NC(=O)CC)(Nc1ccc(F)c(Cl)c1)C(F)(F)F (centres undefined) | > 55.8 µM (inactive) | > 100 µM (inactive) | > 100 µM (inactive) | > 100 µM (inactive) | > 100 µM (inactive) | 40.5 µM (inactive) | > 100 µM (inactive) | > 100 µM (inactive) | > 100 µM (inactive) | – | > 100 µM (inactive) | 78.2 µM (inactive) | > 100 µM (inactive) | > 100 µM (inactive) | > 64.1 µM (inactive) | > 100 µM (inactive) | > 100 µM (inactive) | > 100 µM (inactive) | 34.4 µM (inactive)
CC(=O)NC1C(OCc2ccccc2)OC(CO)C(O)C1OCC(=O)NC(C)C(=O)NC(CCC(=O)NCCCCNc1ccc([N+](=O)[O-])c2[nH]c3ccccc3c(=O)c12)C(N)=O (centres undefined) | 48.9 µM (inactive) | 30.1 µM (inactive) | > 100 µM (inactive) | > 100 µM (inactive) | 29.6 µM (inactive) | 71.1 µM (inactive) | > 100 µM (inactive) | > 100 µM (inactive) | > 100 µM (inactive) | > 100 µM (inactive) | 68.5 µM (inactive) | > 100 µM (inactive) | > 100 µM (inactive) | > 100 µM (inactive) | > 100 µM (inactive) | > 100 µM (inactive) | 92.9 µM (inactive) | – | –
CCC(C#N)(c1ccccc1)N(CCc1ccccc1)C(=O)c1ccccc1 (centres undefined) | 51.2 µM (inactive) | 70.8 µM (inactive) | > 100 µM (inactive) | > 100 µM (inactive) | 18.2 µM (inactive) | > 100 µM (inactive) | > 100 µM (inactive) | 13.5 µM (inactive) | > 100 µM (inactive) | 76.9 µM (inactive) | – | 54.3 µM (inactive) | 85.9 µM (inactive) | 20 µM (inactive) | > 100 µM (inactive) | 85.5 µM (inactive) | 62.1 µM (inactive) | > 100 µM (inactive) | 49.5 µM (inactive)
